Measured values taken from ChEMBL document CHEMBL5120867, “Hernandezine Regulates Proliferation and Autophagy-Induced Apoptosis in Melanoma Cells” (J Nat Prod, 2022).
The source made the active and inactive calls. No cut-off for these calls is given here.

Assays:
B16 [1] = experiment: Induction of apoptosis in mouse B16 cells assessed as early apoptotic cells preincubated for 2 hrs with 3-MA followed by compound addition and measured after 24 hrs by Annexin-V-FITC/PI-staining based flow cytometry (reference value: 0.9 %); format: functional
B16 [2] = experiment: Cytotoxicity against mouse B16 cells assessed as decrease in number of adherent cells at 5 to 7 uM incubated for 24 hrs by phase contrast microscope analysis; format: functional, cell-based; details: dose 5-7 µM
A-375 [3] = experiment: Induction of apoptosis in human A-375 cells assessed as chromatin condensation at 6 to 8 uM incubated for 24 hrs by Hoechst 33258 staining based fluorescence microscopy; format: functional, cell-based; details: dose 6-8 µM
A-375 [4] = experiment: Induction of cell cycle arrest in human A-375 cells assessed as accumulation at G2/M phase incubated for 24 hrs by PI staining based flow cytometry analysis (reference value: 8.87 %); format: functional
B16 [5] = experiment: Induction of cell cycle arrest in mouse B16 cells assessed as accumulation at G0/G1 phase incubated for 24 hrs in presence of AG490 by PI staining based flow cytometry analysis (reference value: 56.59 %); format: functional
A-375 [6] = experiment: Induction of cell cycle arrest in human A-375 cells assessed as accumulation at G0/G1 phase at 7 uM incubated for 24 hrs by PI staining based flow cytometry analysis (reference value: 69.68 %); format: functional
B16 [7] = experiment: Inhibition of autophagy in mouse B16 cells harbouring mCherry-EGFP-LC3 assessed as increase in number of autophagosomes at 6 uM for 8 to 24 hrs by laser scanning confocal microscopic analysis; format: functional, cell-based; details: time 8-24 hrs
B16 [8] = experiment: Induction of cell cycle arrest in mouse B16 cells assessed as accumulation at G0/G1 phase incubated for 24 hrs by PI staining based flow cytometry analysis (reference value: 56.59 %); format: functional
A-375 [9] = experiment: Induction of cell cycle arrest in human A-375 cells assessed as accumulation at S phase at 8 uM incubated for 24 hrs by PI staining based flow cytometry analysis (reference value: 28.83 %); format: functional
B16 [10] = experiment: Induction of cell cycle arrest in mouse B16 cells assessed as accumulation at S phase incubated for 24 hrs by PI staining based flow cytometry analysis (reference value: 42.53 %); format: functional
A-375 [11] = experiment: Induction of autophagy in human A-375 cells assessed as increase in autophagosome with central pulp at 7 uM incubated for 6 to 24 hrs by transmission electron microscopy; format: functional, cell-based; details: time 6-24 hrs
B16 [12] = experiment: Induction of apoptosis in mouse B16 cells assessed as late apoptotic cells at 6 uM measured after 24 hrs by Annexin-V-FITC/PI-staining based flow cytometry (reference value: 4.4 %); format: functional
A-375 [13] = experiment: Induction of cell cycle arrest in human A-375 cells assessed as accumulation at G2/M phase at 8 uM incubated for 24 hrs by PI staining based flow cytometry analysis (reference value: 1.48 %); format: functional
A-375 [14] = experiment: Induction of apoptosis in human A-375 cells assessed as increase in cleaved caspase 9 expression at 6 to 8 uM incubated for 24 hrs by Western blot analysis; format: functional, cell-based; details: dose 6-8 µM
B16 [15] = experiment: Induction of cell cycle arrest in mouse B16 cells assessed as accumulation at S phase at 5 uM incubated for 24 hrs by PI staining based flow cytometry analysis (reference value: 33.46 %); format: functional
B16 [16] = experiment: Induction of apoptosis in mouse B16 cells assessed as early apoptotic cells measured after 24 hrs by Annexin-V-FITC/PI-staining based flow cytometry (reference value: 0.9 %); format: functional
A-375 [17] = experiment: Induction of cell cycle arrest in human A-375 cells assessed as accumulation at G2/M phase incubated for 24 hrs in presence of AG490 inhibitor by PI staining based flow cytometry analysis (reference value: 8.87 %); format: functional
A-375 [18] = experiment: Induction of apoptosis in human A-375 cells assessed as increase in cleaved caspase 3 expression at 6 to 8 uM incubated for 24 hrs by Western blot analysis; format: functional, cell-based; details: dose 6-8 µM
A-375 [19] = experiment: Induction of apoptosis in human A-375 cells assessed as early apoptotic cells at 6 uM after 24 hrs by Annexin-V-FITC/PI-staining based flow cytometry (reference value: 1.4 %); format: functional
A-375 [20] = experiment: Induction of apoptosis in human A-375 cells assessed as early apoptotic cells preincubated for 2 hrs with 3-MA followed by compound addition and measured after 24 hrs by Annexin-V-FITC/PI-staining based flow cytometry (reference value: 3.1 %); format: functional
B16 [21] = experiment: Induction of apoptosis in mouse B16 cells assessed as late apoptotic cells preincubated for 2 hrs with […] followed by compound addition and measured after 24 hrs by Annexin-V-FITC/PI-staining based flow cytometry (reference value: 5.7 %); format: functional
A-375 [22] = experiment: Cytotoxicity against human A-375 cells assessed as change in cell morphology with loss of […] contacts at 6 to 8 uM incubated for 24 hrs by […] phase contrast microscope analysis; format: functional; details: dose 6-8 µM
A-375 [23] = experiment: Induction of apoptosis in human A-375 cells assessed as early apoptotic cells at 8 uM after 24 hrs by Annexin-V-FITC/PI-staining based flow cytometry (reference value: 1.4 %); format: functional
B16 [24] = experiment: Induction of cell cycle arrest in mouse B16 cells assessed as accumulation at S phase at 7 uM incubated for 24 hrs by PI staining based flow cytometry analysis (reference value: 33.46 %); format: functional
A-375 [25] = experiment: Induction of apoptosis in human A-375 cells assessed as late apoptotic cells at 7 uM after 24 hrs by Annexin-V-FITC/PI-staining based flow cytometry (reference value: 5.7 %); format: functional

COc1ccc2cc1Oc1ccc(cc1)C[C@H]1c3cc(c(OC)cc3CCN1C)Oc1c(OC)c(OC)c(OC)c3c1[C@H](C2)N(C)CC3 [HERNANDEZINE]
Activity (B16 [1]): 14.1%
Activity (B16 [2]): Active
Activity (A-375 [3]): Active
Activity (A-375 [4]): 9.5%
Activity (B16 [5]): 84.61%
Activity (A-375 [6]): 76.87%
inhibition (B16 [7]): Active
Activity (B16 [8]): 78.59%
Activity (A-375 [9]): 19.2%
Activity (B16 [10]): 12.63%
Activity (A-375 [11]): Active
Activity (B16 [12]): 19.2%
Activity (A-375 [13]): 1.24%
Activity (A-375 [14]): Active
Activity (B16 [15]): 23.42%
Activity (B16 [16]): 25.6%
Activity (A-375 [17]): 4.78%
Activity (A-375 [18]): Active
Activity (A-375 [19]): 4.1%
Activity (A-375 [20]): 10.1%
Activity (B16 [21]): 16%
Activity (A-375 [22]): Active
Activity (A-375 [23]): 18.2%
Activity (B16 [24]): 20.64%
Activity (A-375 [25]): 47%
